Experimental data: US20150094474A1, “AGRICULTURAL CHEMICALS” (Redx Pharma Ltd., priority 2012, published 2015)

Legend:
[1] = system: peas; experiment: Herbicidal bioassay, peas (% necrosis); format: in vivo
Procedure, shortened: (§1)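 Lolium perenne, barley, peas and Chinese cabbage at 2-4 true leaf stage sprayed simultaneously with a Potter tower, compounds in DMSO at six concentrations (0.05% to 0.0001%). Phytotoxicity scored as % necrosis per EPPO PP1/135 at set intervals; five replicates per treatment and species; DMSO and water controls.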

[2] = system: barley; experiment: Herbicidal bioassay, barley (% necrosis); format: in vivo
Procedure, shortened: as §1

CC(C=O)Oc1ccc(Oc2ccc(C(F)(F)F)cn2)cc1 (stereo not drawn) [Compound 28, 2-[4-[[5-(Trifluoromethyl)-2-pyridyl]oxy]phenoxy]propanal]
Sum of % necrosis in Peas ([1]; Dose 0.000001, Day 0): C (less than 50% necrosis)
Sum of % necrosis in Peas ([1]; Dose 0.000001, Day 1): C (less than 50% necrosis)
Sum of % necrosis in Peas ([1]; Dose 0.000001, Day 3): C (less than 50% necrosis)
Sum of % necrosis in Peas ([1]; Dose 0.000001, Day 7): C (less than 50% necrosis)
Sum of % necrosis in Peas ([1]; Dose 0.000001, Day 10): C (less than 50% necrosis)
Sum of % necrosis in Peas ([1]; Dose 0.000001, Day 14): C (less than 50% necrosis)
Sum of % necrosis in Peas ([1]; Dose 0.000001, Day 21): B (50%-80% necrosis)
Sum of % necrosis in Peas ([1]; Dose 0.000005, Day 0): C (less than 50% necrosis)
Sum of % necrosis in Peas ([1]; Dose 0.000005, Day 1): C (less than 50% necrosis)
Sum of % necrosis in Peas ([1]; Dose 0.000005, Day 3): C (less than 50% necrosis)
Sum of % necrosis in Peas ([1]; Dose 0.000005, Day 7): B (50%-80% necrosis)
Sum of % necrosis in Peas ([1]; Dose 0.000005, Day 10): B (50%-80% necrosis)
Sum of % necrosis in Peas ([1]; Dose 0.000005, Day 14): B (50%-80% necrosis)
Sum of % necrosis in Peas ([1]; Dose 0.000005, Day 21): A (over 80% necrosis)
Sum of % necrosis in Peas ([1]; Dose 0.00001, Day 0): C (less than 50% necrosis)
Sum of % necrosis in Peas ([1]; Dose 0.00001, Day 1): C (less than 50% necrosis)
Sum of % necrosis in Peas ([1]; Dose 0.00001, Day 3): C (less than 50% necrosis)
Sum of % necrosis in Peas ([1]; Dose 0.00001, Day 7): C (less than 50% necrosis)
Sum of % necrosis in Peas ([1]; Dose 0.00001, Day 10): C (less than 50% necrosis)
Sum of % necrosis in Peas ([1]; Dose 0.00001, Day 14): A (over 80% necrosis)
Sum of % necrosis in Peas ([1]; Dose 0.00001, Day 21): A (over 80% necrosis)
Sum of % necrosis in Peas ([1]; Dose 0.00005, Day 0): C (less than 50% necrosis)
Sum of % necrosis in Peas ([1]; Dose 0.00005, Day 1): C (less than 50% necrosis)
Sum of % necrosis in Peas ([1]; Dose 0.00005, Day 3): C (less than 50% necrosis)
Sum of % necrosis in Peas ([1]; Dose 0.00005, Day 7): C (less than 50% necrosis)
Sum of % necrosis in Peas ([1]; Dose 0.00005, Day 10): C (less than 50% necrosis)
Sum of % necrosis in Peas ([1]; Dose 0.00005, Day 14): A (over 80% necrosis)
Sum of % necrosis in Peas ([1]; Dose 0.00005, Day 21): A (over 80% necrosis)
Sum of % necrosis in Peas ([1]; Dose 0.0001, Day 0): C (less than 50% necrosis)
Sum of % necrosis in Peas ([1]; Dose 0.0001, Day 1): C (less than 50% necrosis)
Sum of % necrosis in Peas ([1]; Dose 0.0001, Day 3): C (less than 50% necrosis)
Sum of % necrosis in Peas ([1]; Dose 0.0001, Day 7): C (less than 50% necrosis)
Sum of % necrosis in Peas ([1]; Dose 0.0001, Day 10): C (less than 50% necrosis)
Sum of % necrosis in Peas ([1]; Dose 0.0001, Day 14): A (over 80% necrosis)
Sum of % necrosis in Peas ([1]; Dose 0.0001, Day 21): A (over 80% necrosis)
Sum of % necrosis in Peas ([1]; Dose 0.0005, Day 0): C (less than 50% necrosis)
Sum of % necrosis in Peas ([1]; Dose 0.0005, Day 1): C (less than 50% necrosis)
Sum of % necrosis in Peas ([1]; Dose 0.0005, Day 3): C (less than 50% necrosis)
Sum of % necrosis in Peas ([1]; Dose 0.0005, Day 7): B (50%-80% necrosis)
Sum of % necrosis in Peas ([1]; Dose 0.0005, Day 10): B (50%-80% necrosis)
Sum of % necrosis in Peas ([1]; Dose 0.0005, Day 14): A (over 80% necrosis)
Sum of % necrosis in Peas ([1]; Dose 0.0005, Day 21): A (over 80% necrosis)
Sum of % necrosis in barley ([2]; Dose 0.000001, Day 0): C (less than 50% necrosis)
Sum of % necrosis in barley ([2]; Dose 0.000001, Day 1): C (less than 50% necrosis)
Sum of % necrosis in barley ([2]; Dose 0.000001, Day 3): C (less than 50% necrosis)
Sum of % necrosis in barley ([2]; Dose 0.000001, Day 7): C (less than 50% necrosis)
Sum of % necrosis in barley ([2]; Dose 0.000001, Day 10): C (less than 50% necrosis)
Sum of % necrosis in barley ([2]; Dose 0.000001, Day 14): C (less than 50% necrosis)
Sum of % necrosis in barley ([2]; Dose 0.000001, Day 21): C (less than 50% necrosis)
Sum of % necrosis in barley ([2]; Dose 0.000005, Day 0): C (less than 50% necrosis)
Sum of % necrosis in barley ([2]; Dose 0.000005, Day 1): C (less than 50% necrosis)
Sum of % necrosis in barley ([2]; Dose 0.000005, Day 3): C (less than 50% necrosis)
Sum of % necrosis in barley ([2]; Dose 0.000005, Day 7): C (less than 50% necrosis)
Sum of % necrosis in barley ([2]; Dose 0.000005, Day 10): C (less than 50% necrosis)
Sum of % necrosis in barley ([2]; Dose 0.000005, Day 14): C (less than 50% necrosis)
Sum of % necrosis in barley ([2]; Dose 0.000005, Day 21): C (less than 50% necrosis)
Sum of % necrosis in barley ([2]; Dose 0.00001, Day 0): C (less than 50% necrosis)
Sum of % necrosis in barley ([2]; Dose 0.00001, Day 1): C (less than 50% necrosis)
Sum of % necrosis in barley ([2]; Dose 0.00001, Day 3): C (less than 50% necrosis)
Sum of % necrosis in barley ([2]; Dose 0.00001, Day 7): C (less than 50% necrosis)
Sum of % necrosis in barley ([2]; Dose 0.00001, Day 10): C (less than 50% necrosis)
Sum of % necrosis in barley ([2]; Dose 0.00001, Day 14): C (less than 50% necrosis)
Sum of % necrosis in barley ([2]; Dose 0.00001, Day 21): C (less than 50% necrosis)
Sum of % necrosis in barley ([2]; Dose 0.00005, Day 0): C (less than 50% necrosis)
Sum of % necrosis in barley ([2]; Dose 0.00005, Day 1): C (less than 50% necrosis)
Sum of % necrosis in barley ([2]; Dose 0.00005, Day 3): C (less than 50% necrosis)
Sum of % necrosis in barley ([2]; Dose 0.00005, Day 7): C (less than 50% necrosis)
Sum of % necrosis in barley ([2]; Dose 0.00005, Day 10): C (less than 50% necrosis)
Sum of % necrosis in barley ([2]; Dose 0.00005, Day 14): C (less than 50% necrosis)
Sum of % necrosis in barley ([2]; Dose 0.00005, Day 21): C (less than 50% necrosis)
Sum of % necrosis in barley ([2]; Dose 0.0001, Day 0): C (less than 50% necrosis)
Sum of % necrosis in barley ([2]; Dose 0.0001, Day 1): C (less than 50% necrosis)
Sum of % necrosis in barley ([2]; Dose 0.0001, Day 3): C (less than 50% necrosis)
Sum of % necrosis in barley ([2]; Dose 0.0001, Day 7): C (less than 50% necrosis)
Sum of % necrosis in barley ([2]; Dose 0.0001, Day 10): C (less than 50% necrosis)
Sum of % necrosis in barley ([2]; Dose 0.0001, Day 14): C (less than 50% necrosis)
Sum of % necrosis in barley ([2]; Dose 0.0001, Day 21): B (50%-80% necrosis)
Sum of % necrosis in barley ([2]; Dose 0.0005, Day 0): C (less than 50% necrosis)
Sum of % necrosis in barley ([2]; Dose 0.0005, Day 1): C (less than 50% necrosis)
Sum of % necrosis in barley ([2]; Dose 0.0005, Day 3): C (less than 50% necrosis)
Sum of % necrosis in barley ([2]; Dose 0.0005, Day 7): C (less than 50% necrosis)
Sum of % necrosis in barley ([2]; Dose 0.0005, Day 10): C (less than 50% necrosis)
Sum of % necrosis in barley ([2]; Dose 0.0005, Day 14): C (less than 50% necrosis)
Sum of % necrosis in barley ([2]; Dose 0.0005, Day 21): A (over 80% necrosis)
